Laboratory results reported in the supplement of paper PMC10307832.

What was measured:
Experiment in all cases: relative viability (nuclei count vs DMSO), 5 days (fraction); higher = more cells survive
NCI-H650 = system: NCI-H650
How it was run: (§1)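 Values are medians from duplicate plates. Each reflects relative viability, defined as the nuclei count of treated wells over that of vehicle wells. Lung cancer cell lines in 1536-well plates were pin-tool dosed one day after seeding with one drug alone or with a fixed anchor-drug dose plus five library-drug doses (not always all listed) in √10 steps, then fixed, stained and imaged at 4× after 5 days.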

NCI-H1437 = system: NCI-H1437
How it was run: as §1

NCI-H2405 = system: NCI-H2405
How it was run: as §1

NCI-H647 = system: NCI-H647
How it was run: as §1

NCI-H2023 = system: NCI-H2023
How it was run: as §1

NCI-H460 = system: NCI-H460
How it was run: as §1

NCI-H2126 = system: NCI-H2126
How it was run: as §1

EPLC-272H = system: EPLC-272H
How it was run: as §1

HOP-62 = system: HOP-62
How it was run: as §1

NCI-H441 = system: NCI-H441
How it was run: as §1

NCI-H1793 = system: NCI-H1793
How it was run: as §1

SW 1573 = system: SW 1573
How it was run: as §1

NCI-H2347 = system: NCI-H2347
How it was run: as §1

LOU-NH91 = system: LOU-NH91
How it was run: as §1

NCI-H2009 = system: NCI-H2009
How it was run: as §1

NCI-H520 = system: NCI-H520
How it was run: as §1

EMC-BAC-2 = system: EMC-BAC-2
How it was run: as §1

HCC-44 = system: HCC-44
How it was run: as §1

NCI-H727 = system: NCI-H727
How it was run: as §1

LCLC-103H = system: LCLC-103H
How it was run: as §1

PC-14 = system: PC-14
How it was run: as §1

NCI-H23 = system: NCI-H23
How it was run: as §1

For `CCCCCCCCCCCC1=C(O)C(=O)C=C(O)C1=O` [Embelin] + C[C@]1(O)C[C@@H](c2nc(-c3ccc4ccc(-c5ccccc5)nc4c3)c3c(N)nccn32)C1 [Linsitinib] (partner 1 µM), the relative viability (NCI-H650; first compound 0.08 µM) was 0.812, the relative viability (NCI-H650; first compound 0.8 µM) was 1.41 and the relative viability (NCI-H650; first compound 2.53 µM) was 0.653. It also gave a relative viability (NCI-H650; first compound 8 µM) of 0.716, a relative viability (NCI-H1437; first compound 0.08 µM) of 1.01 and a relative viability (NCI-H1437; first compound 0.8 µM) of 1.1. For the same compound, the relative viability (NCI-H1437; first compound 2.53 µM) was 1.24, the relative viability (NCI-H1437; first compound 8 µM) was 0.76 and the relative viability (NCI-H2405; first compound 0.08 µM) was 0.978. The relative viability (NCI-H2405; first compound 0.8 µM) was 1.16, the relative viability (NCI-H2405; first compound 2.53 µM) was 0.973 and the relative viability (NCI-H2405; first compound 8 µM) was 0.92. For the same compound, the relative viability (NCI-H647; first compound 0.08 µM) was 1.31, the relative viability (NCI-H647; first compound 0.8 µM) was 1.27 and the relative viability (NCI-H647; first compound 2.53 µM) was 1.32. For the same compound, the relative viability (NCI-H647; first compound 8 µM) was 1.28, the relative viability (NCI-H2023; first compound 0.08 µM) was 0.707 and the relative viability (NCI-H2023; first compound 0.8 µM) was 0.66. The relative viability (NCI-H2023; first compound 2.53 µM) was 0.794, the relative viability (NCI-H2023; first compound 8 µM) was 0.609 and the relative viability (NCI-H460; first compound 0.08 µM) was 0.808. The relative viability (NCI-H460; first compound 0.8 µM) was 0.988, the relative viability (NCI-H460; first compound 2.53 µM) was 1.18 and the relative viability (NCI-H460; first compound 8 µM) was 0.69. For the same compound, the relative viability (NCI-H2126; first compound 0.08 µM) was 0.714, the relative viability (NCI-H2126; first compound 0.8 µM) was 0.787 and the relative viability (NCI-H2126; first compound 2.53 µM) was 0.746. It also gave a relative viability (NCI-H2126; first compound 8 µM) of 0.676, a relative viability (EPLC-272H; first compound 0.08 µM) of 1.31 and a relative viability (EPLC-272H; first compound 0.8 µM) of 1.48. For the same compound, the relative viability (EPLC-272H; first compound 2.53 µM) was 1.32, the relative viability (EPLC-272H; first compound 8 µM) was 1.03 and the relative viability (HOP-62; first compound 0.08 µM) was 0.937. For the same compound, the relative viability (HOP-62; first compound 0.8 µM) was 1.05, the relative viability (HOP-62; first compound 2.53 µM) was 1.06 and the relative viability (HOP-62; first compound 8 µM) was 0.96. For the same compound, the relative viability (NCI-H441; first compound 0.08 µM) was 0.598, the relative viability (NCI-H441; first compound 0.8 µM) was 0.559 and the relative viability (NCI-H441; first compound 2.53 µM) was 0.539. It also gave a relative viability (NCI-H441; first compound 8 µM) of 0.622, a relative viability (NCI-H1793; first compound 0.08 µM) of 0.736 and a relative viability (NCI-H1793; first compound 0.8 µM) of 1.15. For the same compound, the relative viability (NCI-H1793; first compound 2.53 µM) was 1.5, the relative viability (NCI-H1793; first compound 8 µM) was 0.853 and the relative viability (SW 1573; first compound 0.08 µM) was 0.842. It also gave a relative viability (SW 1573; first compound 0.8 µM) of 0.924, a relative viability (SW 1573; first compound 2.53 µM) of 0.75 and a relative viability (SW 1573; first compound 8 µM) of 0.832. The relative viability (NCI-H2347; first compound 0.08 µM) was 0.968, the relative viability (NCI-H2347; first compound 0.8 µM) was 1.03 and the relative viability (NCI-H2347; first compound 2.53 µM) was 1.09. For the same compound, the relative viability (NCI-H2347; first compound 8 µM) was 0.958, the relative viability (LOU-NH91; first compound 0.08 µM) was 1.02 and the relative viability (LOU-NH91; first compound 0.8 µM) was 1.23. It also gave a relative viability (LOU-NH91; first compound 2.53 µM) of 1.03, a relative viability (LOU-NH91; first compound 8 µM) of 0.877 and a relative viability (NCI-H2009; first compound 0.08 µM) of 1.24. It also gave a relative viability (NCI-H2009; first compound 0.8 µM) of 1.3, a relative viability (NCI-H2009; first compound 2.53 µM) of 1.21 and a relative viability (NCI-H2009; first compound 8 µM) of 1.12. For the same compound, the relative viability (NCI-H520; first compound 0.08 µM) was 1, the relative viability (NCI-H520; first compound 0.8 µM) was 0.849 and the relative viability (NCI-H520; first compound 2.53 µM) was 0.869. The relative viability (NCI-H520; first compound 8 µM) was 1.03, the relative viability (EMC-BAC-2; first compound 0.08 µM) was 0.845 and the relative viability (EMC-BAC-2; first compound 0.8 µM) was 0.862. It also gave a relative viability (EMC-BAC-2; first compound 2.53 µM) of 0.844, a relative viability (EMC-BAC-2; first compound 8 µM) of 0.842 and a relative viability (HCC-44; first compound 0.08 µM) of 0.739. The relative viability (HCC-44; first compound 0.8 µM) was 0.654, the relative viability (HCC-44; first compound 2.53 µM) was 0.742 and the relative viability (HCC-44; first compound 8 µM) was 0.642. It also gave a relative viability (NCI-H727; first compound 0.08 µM) of 0.282, a relative viability (NCI-H727; first compound 0.8 µM) of 0.192 and a relative viability (NCI-H727; first compound 2.53 µM) of 0.307. It also gave a relative viability (NCI-H727; first compound 8 µM) of 0.268, a relative viability (LCLC-103H; first compound 0.08 µM) of 1.03 and a relative viability (LCLC-103H; first compound 0.8 µM) of 1.11. It also gave a relative viability (LCLC-103H; first compound 2.53 µM) of 1.1, a relative viability (LCLC-103H; first compound 8 µM) of 1.03 and a relative viability (PC-14; first compound 0.08 µM) of 0.921. It also gave a relative viability (PC-14; first compound 0.8 µM) of 1, a relative viability (PC-14; first compound 2.53 µM) of 1.06 and a relative viability (PC-14; first compound 8 µM) of 0.972. The relative viability (NCI-H23; first compound 0.08 µM) was 0.548, the relative viability (NCI-H23; first compound 0.8 µM) was 0.547 and the relative viability (NCI-H23; first compound 2.53 µM) was 0.609. For the same compound, the relative viability (NCI-H23; first compound 8 µM) was 0.652.
